Series [1] has as its system chloroquine-sensitive NF54 strain of P. falciparum. As to the kind of experiment: in vitro screen against chloroquine-sensitive NF54 strain of P. falciparum. Conditions: for IC50: Plasmodium falciparum. Type of series: cell-based.
For a further series, the system named is P. berghei. As to the kind of experiment: 1-day Peters test against P. berghei in vivo. The settings on record: 1 day, po.
In series [2] the test system is ANKA strain of P. Berghei. Description: single dose STI in vivo screen in infected Moro SPF mice. The settings on record: for Activity (%) po / Activity (%) sc: percent reduction in parasitemia day 3 post-infection; for antimalarial activity, overall assessment: overall judgement of in vitro and in vivo data of Table 2. Here is the method:
In the single dose STI in vivo screen, Moro SPF mice infected with the ANKA strain of P. Berghei (groups of three mice) were treated on day one post-infection with trioxolanes dissolved or suspended in 3% ethanol and 7% Tween 80. […] Antimalarial activity was measured by percent redution in parasitemia on day three post-infection and survival times compared to an untreated control group. Survival to day 30 post-infection is considered to be a cure.

Series [3] relates to chloroquine-resistant K1 strain of P. falciparum. Description: in vitro screen against chloroquine-resistant K1 strain of P. falciparum. Format: cell-based. The settings on record: for IC50: Plasmodium falciparum.
Series [4] is described as follows: differential scanning calorimetry (DSC), thermal stability. Format: physicochemical. The settings on record: thermal decomposition. Background: Differential scanning calorimetry records heat flow against a reference as temperature is scanned.
Where [5] appears, read: single 100 mg/kg po, survival to day 30 = cure.
Where [6] appears, read: single 100 mg/kg sc, survival to day 30 = cure.
The mark [7] stands for this setting: NF54, read-out: IC50 (ng/ml) NF54.
Where [8] appears, read: in vitro, NF54 strain, read-out: IC50 (ng/ml) NF54.
Where [9] appears, read: in vitro, K1 strain, read-out: IC50 (ng/ml) K1.

Each structure is given as a SMILES string. In brackets after ≈: the same amount, converted by molar mass. Like-named read-outs stand apart in the source and are kept apart here.

Take `CCO[C@H]1O[C@@H]2O[C@@]3(C)CC[C@H]4[C@H](C)CC[C@@H]([C@H]1C)[C@@]24OO3` [Arteether, arteether, reference compound]: the “IC50 (ng/ml) NF54” value in series [1] (in vitro, NF54 strain) worked out at 0.54 ng/mL (≈ 0.00173 µM). Besides, the “P. berghei (1 day) ED50 po” value in the series on P. berghei was 2.4 mg/kg. The “P. berghei (1 day) ED90 po” value in the series on P. berghei was 6.8 mg/kg. The “Activity (%) po” value in series [2] (single 10 mg/kg po) is on record as 98%; in series [2] (single 100 mg/kg po), 99.98%. The “Activity (%) sc” value in series [2] (single 10 mg/kg sc) and in series [2] (single 100 mg/kg sc) was 100% each time. Moreover, the “Survival (days) po” value in series [2] (single 10 mg/kg po) was found to be 8 days; in series [2] (setting [5]), 12 days. The entries for the “Survival (days) sc” value in series [2] (single 10 mg/kg sc) and in series [2] (setting [6]) were 9.7 days and 26.3 days, respectively.

In the case of `C1CCC2(CC1)OOC1(CCCCC1)O2` [OZ01, 7,14,15-Trioxadispiro[5.1.5.2]pentadecane], the IC50 in series [1] (setting [7]) was greater than 100 ng/mL; in series [3] (K1, read-out: IC50 (ng/ml) K1) it was greater than 100 ng/mL. Further, in series [2], the “antimalarial activity, overall assessment” value (shortened to “antimalarial activity”) is recorded as “less active”. In series [2] (single 100 mg/kg po), the “Activity (%) po” value is listed as 0/0%. Further, in series [2] (single 100 mg/kg sc), the “Activity (%) sc” value is recorded as 0/0%. Also, the “Survival (days) po” value in series [2] (setting [5]) is recorded as 5.3/5.3 days. Further, the “Survival (days) sc” value in series [2] (setting [6]) was 5.3/5.3 days.

Turning to `O=C1CCC2(CC1)OOC1(CCCCC1)O2` [OZ02, 3-Oxo-7,14,15-trioxadispiro[5.1.5.2]pentadecane], the “Tm dec. (° C.)” value in series [4] came to 193.3 °C. The IC50 in series [1] (setting [8]) was 94 ng/mL (≈ 0.415 µM); in series [3] (setting [9]) it was greater than 100 ng/mL. In addition, in series [2], the “antimalarial activity” value is reported as “less active”. Moreover, the “Activity (%) po” value in series [2] (single 100 mg/kg po) is reported as 0/0%. In series [2] (single 100 mg/kg sc), the “Activity (%) sc” value is reported as 0/0%. In addition, the “Survival (days) po” value in series [2] (setting [5]) is recorded as 5.0/5.0 days. In series [2] (setting [6]), the “Survival (days) sc” value is on record as 5.0/5.0 days.

Consider `FC1CCCCC12OOC1(CCCCC1)O2` (stereo not shown) [OZ06, 1-Fluoro-7,14,15-trioxadispiro[5.1.5.2]pentadecane], for which the IC50 in series [1] (setting [7]) came to 22 ng/mL (≈ 0.0955 µM); in series [3] (K1, read-out: IC50 (ng/ml) K1) it was 18 ng/mL (≈ 0.0782 µM). For the same molecule, in series [2], the “antimalarial activity” value is on record as “less active”. For the same molecule, the “Survival (days) po” value in series [2] (setting [5]) is on record as 1.0/1.0 days. Besides, the “Survival (days) sc” value in series [2] (setting [6]) was 1.0/1.0 days.

With `O=S1(=O)CCC2(CC1)OOC1(O2)C2CC3CC(C2)CC1C3` (stereo not shown) [OZ50, Adamantane-2-spiro-3′-1′,2′,4′-trioxa-8′-thiaspiro[4.5]decane 8′,8′-dioxide], the “Tm dec. (° C.)” value in series [4] came out at 147.1 °C. The IC50 in series [1] (setting [8]) was 1.2 ng/mL (≈ 0.00382 µM); in series [3] (setting [9]) it was 1.1 ng/mL (≈ 0.0035 µM).

Consider `O=C(O)[C@H]1CC[C@]2(CC1)OOC1(O2)C2CC3CC(C2)CC1C3` (stereo partly drawn) [OZ71, cis-Adamantane-2-spiro-3′-8′-carboxy-1′,2′,4′-trioxaspiro[4.5]decane], for which the “Tm dec. (° C.)” value in series [4] worked out at 165.9 °C. For the same molecule, the “IC50 (ng/ml) NF54” value in series [1] (in vitro, NF54 strain) amounted to 3.7 ng/mL (≈ 0.012 µM). Besides, the “IC50 (ng/ml) K1” value in series [3] (in vitro, K1 strain) turned out to be 4.5 ng/mL (≈ 0.0146 µM).

Consider `O=C(O)[C@H]1CC[C@@]2(CC1)OOC1(O2)C2CC3CC(C2)CC1C3` (stereo partly drawn) [OZ72, trans-Adamantane-2-spiro-3′-8′-carboxy-1′,2′,4′-trioxaspiro[4.5]decane], for which the “Tm dec. (° C.)” value in series [4] stood at 161.9 °C. The “IC50 (ng/ml) NF54” value in series [1] (in vitro, NF54 strain) came to 13 ng/mL (≈ 0.0422 µM). The “IC50 (ng/ml) K1” value in series [3] (in vitro, K1 strain) worked out at 15 ng/mL (≈ 0.0486 µM).

Regarding `c1ccc2c(c1)CCC1(C2)OOC2(O1)C1CC3CC(C1)CC2C3` (stereo not shown) [OZ85, Adamantane-2-spiro-3′-1′,2′,4′-trioxolane-5′-spiro-2″-3″,4″-dihydro-1″H-naphthalene], the “Tm dec. (° C.)” value in series [4] was found to be 152.8 °C. In addition, in series [1] (in vitro, NF54 strain), the “IC50 (ng/ml) NF54” value is given as “/2.0 ng/ml”. In series [3] (in vitro, strains not distinguished), the “in vitro potency” value was “very active”.

On to `OCCC1CCC2(CC1)OOC1(O2)C2CC3CC(C2)CC1C3` (stereo not shown) [OZ89, Adamantane-2-spiro-3′-8′-(2′-hydroxyethyl)-1′,2′,4′-trioxaspiro[4.5]decane], for which the “Tm dec. (° C.)” value in series [4] worked out at 154.7 °C. The “IC50 (ng/ml) NF54” value in series [1] (in vitro, NF54 strain) is “/1.0 ng/ml”. In addition, the “antimalarial activity” value in series [2] is listed as “quite active”.

Turning to `CC1(O)CCC2(CC1)OOC1(O2)C2CC3CC(C2)CC1C3` (stereo not shown) [OZ90, Adamantane-2-spiro-3′-8′-hydroxy-8′-methyl-1′,2′,4′-trioxaspiro[4.5]decane], the “Tm dec. (° C.)” value in series [4] is 153.2 °C. In series [1] (in vitro, NF54 strain), the “IC50 (ng/ml) NF54” value was “/1.1 ng/ml”. Also, in series [2], the “antimalarial activity” value was “quite active”.

(Values after patent US6486199B1, “Spiro and dispiro 1,2,4-trioxolane antimalarials” (Medicines for Malaria Venture MMV International Centre …, priority 2001, dated 2002).)
